# Source: patent US20050150764A1 (priority 2001, published 2005)
# Columns and labels:
# [1] = tested on: caterpillars of the army worm (Spodoptera frugiperda); assay: Spodoptera frugiperda test (Example E); type: in vivo; settings: 1000 ppm, after 7 days, cabbage leaves dipped
# Protocol: (§1) Spodoptera frugiperda Test [table] To produce a suitable preparation of active compound, 1 part by weight of active compound is mixed with the stated amounts of solvent and emulsifier, and the concentrate is diluted with emulsifier-containing water to the desired concentration. Cabbage leaves (Brassica oleracea) are treated by being dipped into the preparation of active compound at the desired concentration and are populated with caterpillars of the army worm (Spodoptera frugiperda) while the leaves are still moist. After the desired period of time, the kill in % is determined. 100% means that all of the caterpillars have been killed: 0% denotes that no caterpillars have been killed.
# [2] = tested on: larvae of the mustard beetle (Phaedon cochleariae); assay: Phaedon larvae test (Example B); type: in vivo; settings: 1000 ppm, after 7 days, cabbage leaves dipped
# Protocol: as §1, with “Phaedon larvae Test” for “Spodoptera frugiperda Test”, “with larvae” for “with caterpillars”, “the mustard beetle (Phaedon cochleariae)” for “the army worm (Spodoptera frugiperda)”, “the beetle larvae” for “the caterpillars”, “no beetle larvae” for “no caterpillars”
# Lucilia cuprina larvae = assay: Blowfly larvae test/development inhibition activity (Example I); type: in vivo; settings: 100% = no flies hatched
# Protocol: Blowfly Larvae Test/Development Inhibition Activity
# (§2) 20 mg of active substance are dissolved in 1 ml of dimethyl sulphoxide; lower concentrations are prepared by dilution with distilled water.
# About 20 Lucilia cuprina larvae are introduced into a test tube containing 1 cm^3 of horse meat and 0.5 ml of the test preparation of active compound. The efficacy of the active compound preparation is determined after 24 and 48 hours. The test tubes are transferred to beakers whose bases are covered with sand. After 2 more days, the test tubes are removed and the pupae are counted.
# The activity of the active compound preparation is assessed in accordance with the number of flies which have hatched following 1.5 times the development period of an untreated control. 100% means that no flies have hatched; 0% means that all of the flies hatched normally.
# [3] = tested on: adult Musca domestica, strain: Reichswald (OP, SP, carbamate resistant); assay: Test with flies (Musca domestica) (Example H); type: in vivo
# Protocol: Test with Flies (Musca domestica)
# as §2
# […] After the filter disks have dried, 25 test organisms are transferred to the Petri dishes and covered.
# The activity of the active compound preparation is determined after 1, 3, 5, 24 and 48 hours. 100% means that all the flies were killed; 0% means that none of the flies was killed.
# [4] = Concentration 4 μg fly, reading time not given
# [5] = Concentration 20 μg fly, reading time not given
# [6] = Concentration 100 μg fly, reading time not stated (1, 3, 5, 24 and 48 hours in method)
Compound,kill [1],kill [2],logP (pH 2)/ m.p. [° C.] (logP part),further results
N#Cc1cccc(C(=O)C2CCOC2=O)c1 (stereo not drawn),,,,logP (logP (pH 2)): 1.48
O=C(Nc1ccc(Cl)cc1)N1CCC(n2cc(Cl)cn2)C(c2cccc(C(F)(F)F)c2)=N1 (stereo not drawn) [Example 2],100%,100%,4.60/199,"% Activity/Kill (Lucilia cuprina larvae; Concentration 4 ppm): 0%; % Activity/Kill (Lucilia cuprina larvae; Concentration 20 ppm): 100%; % Activity/Kill (Lucilia cuprina larvae; Concentration 100 ppm): 100%; % Activity/Kill [3, 4]: 0%; % Activity/Kill [3, 5]: 30%; % Activity/Kill [3, 6]: 95%"
O=C(Nc1ccc(OC(F)(F)F)cc1)N1CCC(n2cc(Cl)cn2)C(c2cccc(C(F)(F)F)c2)=N1 (stereo not drawn) [Example 3],100%,100%,4.83/192,"% Activity/Kill (Lucilia cuprina larvae; Concentration 4 ppm): 0%; % Activity/Kill (Lucilia cuprina larvae; Concentration 20 ppm): 100%; % Activity/Kill (Lucilia cuprina larvae; Concentration 100 ppm): 100%; % Activity/Kill [3, 4]: 0%; % Activity/Kill [3, 5]: 50%; % Activity/Kill [3, 6]: 95%"
O=C(Nc1ccc(C(F)(F)F)cc1)N1CCC(n2cc(Cl)cn2)C(c2cccc(F)c2)=N1 (stereo not drawn) [Example 4],100%,100%,4.37/194,
O=C(Nc1ccc(Cl)cc1)N1CCC(n2cc(Cl)cn2)C(c2cccc(F)c2)=N1 (stereo not drawn) [Example 5],100%,100%,4.18/213,% Activity/Kill (Lucilia cuprina larvae; Concentration 20 ppm): 0%; % Activity/Kill (Lucilia cuprina larvae; Concentration 100 ppm): 100%
O=C(Nc1ccc(OC(F)(F)F)cc1)N1CCC(n2cc(Cl)cn2)C(c2cccc(F)c2)=N1 (stereo not drawn) [Example 6],100%,100%,4.43/148,"% Activity/Kill (Lucilia cuprina larvae; Concentration 20 ppm): 0%; % Activity/Kill (Lucilia cuprina larvae; Concentration 100 ppm): 100%; % Activity/Kill [3, 4]: 0%; % Activity/Kill [3, 5]: 50%; % Activity/Kill [3, 6]: 99%"
O=C(Nc1ccc(OC(F)(F)F)cc1)N1CCC(n2cc(Cl)cn2)C(c2cccc(Cl)c2)=N1 (stereo not drawn) [Example 7],100%,100%,4.73/181,"% Activity/Kill (Lucilia cuprina larvae; Concentration 4 ppm): 0%; % Activity/Kill (Lucilia cuprina larvae; Concentration 20 ppm): 100%; % Activity/Kill (Lucilia cuprina larvae; Concentration 100 ppm): 100%; % Activity/Kill [3, 4]: 0%; % Activity/Kill [3, 5]: 50%; % Activity/Kill [3, 6]: 99%"
O=C(Nc1ccc(Cl)cc1)N1CCC(n2cc(Cl)cn2)C(c2cccc(Cl)c2)=N1 (stereo not drawn) [Example 8],100%,100%,4.49/203,
O=C(Nc1ccc(C(F)(F)F)cc1)N1CCC(n2cc(Cl)cn2)C(c2cccc(Cl)c2)=N1 (stereo not drawn) [Example 9],100%,100%,4.69/199,"% Activity/Kill (Lucilia cuprina larvae; Concentration 20 ppm): 0%; % Activity/Kill (Lucilia cuprina larvae; Concentration 100 ppm): 100%; % Activity/Kill [3, 4]: 0%; % Activity/Kill [3, 5]: 85%; % Activity/Kill [3, 6]: 95%"
O=C(Nc1ccc(Cl)cc1)N1CCC(n2cc(Cl)cn2)C(c2cccc(OC(F)(F)F)c2)=N1 (stereo not drawn) [Example 10],100%,100%,4.73/158,
O=C(Nc1ccc(Cl)cc1)N1CCC(n2cc(Cl)cn2)C(c2cccc(Br)c2)=N1 (stereo not drawn) [Example 11],100%,100%,4.58/198,
O=C(Nc1ccc(OC(F)(F)F)cc1)N1CCC(n2cc(Cl)cn2)C(c2cccc(Br)c2)=N1 (stereo not drawn) [Example 12],100%,100%,4.82/197,
N#Cc1cccc(C2=NN(C(=O)Nc3ccc(C(F)(F)F)cc3)CCC2n2cc(Cl)cn2)c1 (stereo not drawn) [Example 16],100%,100%,4.03/229,
N#Cc1cnn(C2CCN(C(=O)Nc3ccc(Cl)cc3)N=C2c2cccc(Cl)c2)c1 (stereo not drawn) [Example 18],,,3.90/228,
N#Cc1cnn(C2CCN(C(=O)Nc3ccc(OC(F)(F)F)cc3)N=C2c2cccc(Cl)c2)c1 (stereo not drawn) [Example 19],,,4.15/186,
N#Cc1ccc(NC(=O)N2CCC(n3cc(Cl)cn3)C(c3cccc(Cl)c3)=N2)cc1 (stereo not drawn) [Example 20],,,3.77,
N#Cc1cnn(C2CCN(C(=O)Nc3ccc(SC(F)(F)F)cc3)N=C2c2cccc(Cl)c2)c1 (stereo not drawn) [Example 21],,,4.53/194,
N#Cc1cnn(C2CCN(C(=O)Nc3ccc(Cl)cc3)N=C2c2cccc(Br)c2)c1 (stereo not drawn) [Example 22],,,3.96/213,
O=C(Nc1ccc(SC(F)(F)F)cc1)N1CCC(n2cc(Cl)cn2)C(c2cccc(C(F)(F)F)c2)=N1 (stereo not drawn) [Example 23],,,5.21/188,"% Activity/Kill (Lucilia cuprina larvae; Concentration 20 ppm): 0%; % Activity/Kill (Lucilia cuprina larvae; Concentration 100 ppm): 100%; % Activity/Kill [3, 5]: 0%; % Activity/Kill [3, 6]: 90%"
N#Cc1cnn(C2CCN(C(=O)Nc3ccc(SC(F)(F)F)cc3)N=C2c2cccc(Br)c2)c1 (stereo not drawn) [Example 24],,,4.64/206,
N#Cc1cnn(C2CCN(C(=O)Nc3ccc(OC(F)(F)F)cc3)N=C2c2cccc(Br)c2)c1 (stereo not drawn) [Example 25],,,4.24/192,
N#Cc1cccc(C2=NN(C(=O)Nc3ccc(SC(F)(F)F)cc3)CCC2n2cc(C#N)cn2)c1 (stereo not drawn) [Example 26],,,3.94/242,
N#Cc1cnn(C2CCN(C(=O)Nc3ccc(C(F)(F)F)cc3)N=C2c2cccc(Br)c2)c1 (stereo not drawn) [Example 27],,,4.18/244,
N#Cc1cnn(C2CCN(C(=O)Nc3ccc(Br)cc3)N=C2c2cccc(Cl)c2)c1 (stereo not drawn) [Example 28],,,4.03,
N#Cc1cccc(C2=NN(C(=O)Nc3ccc(OC(F)(F)F)cc3)CCC2n2cc(C#N)cn2)c1 (stereo not drawn) [Example 29],,,3.62/239,
"N#Cc1cccc(C(=O)C(Br)CCCl)c1 (stereo not drawn) [Example V-1, 3′-cyano-2-bromo-4-chlorobutyrophenone]",,,,logP (logP (pH 2)): 3.09
